# Like-named read-outs stand apart in the source and are kept apart here.
# Key:
# [1] = Toxicokinetic study, 14-day repeated intraperitoneal administration in Sprague-Dawley rats; format: in vivo; conditions: for Tmax / AUClast / Cmax / AUC(0-t) / Cmax at 14 day / Tmax at 14 day: Sprague-Dawley, ip; for AUC(0-t): AUClast
# Method: (§1) A 14-day repeat-intraperitoneal administration protocol was used for carrying out toxicokinetic studies with nigericin. Male and female animals were divided into three groups each based on the dose of nigericin administered (0.5, 1.5 and 5 mg/kg/day). Each group received the administration of the compound at the same dose every day for 14 days. The toxicokinetic parameters were quantified following the first (i.e., day-1) and last (i.e., day-14) administration of nigericin, and the findings are tabulated in Table-3. Following administration on day-1, nigericin was quantifiable in the plasma of the animals for up to 24 h, in all three dose-categories, in both genders. After the administration of the second dose on day-14, plasma concentrations were quantifiable up to 8 h for 0.5 mg/kg/day dose category and up to 24 h for 1.5 mg/kg/day dose category, in both genders.
# [2] = system: Bacillus cereus (ATCC 11778); assay: Antibacterial activity (MIC) against Bacillus cereus; format: cell-based; conditions: ATCC11778, range stated over five gram-positive microorganisms, read-out: minimum inhibitory concentration (MIC)
# murine splenocytes = format: cell-based
# Description: FIG. 3 depicts a comparison of the in-vitro toxicity of nigericin isolated from Streptomyces sp. MCC-0151 and commercially available Nigericin on murine splenocytes. ‘▴’ represents nigericin from Streptomyces sp. MCC 0151 and ‘▾’ represents standard Nigericin.
# MCCO151 and Sigma standard nigericin. Nigericin produced from Streptomyces sp.
# [3] = system: Staphylococcus epidermidis (ATCC 12228); assay: Antibacterial activity (MIC) against Staphylococcus epidermidis; format: cell-based; conditions: ATCC12228, range stated over five gram-positive microorganisms, read-out: minimum inhibitory concentration (MIC)
# [4] = system: Listeria monocytogenes (ATCC 19111); assay: Antibacterial activity (MIC) against Listeria monocytogenes; format: cell-based; conditions: ATCC19111, range stated over five gram-positive microorganisms, read-out: minimum inhibitory concentration (MIC)
# Description: (§2) FIG. 1A depicts the inhibition of S. aureus growth at varying concentrations of nigericin from Streptomyces sp. MCC-0151. FIG. 1B depicts the antibacterial activity of nigericin from Streptomyces sp. MCC0151 against S. aureus.
# Sprague-Dawley rats = assay: 14-day repeated intraperitoneal dose toxicity in Sprague-Dawley rats; format: in vivo; conditions: for mortality: female rats, 5 mg/kg/day IP, before Day 14, 5 mg/kg/day
# Method: as §1
# The 5 mg/kg/day was lethal in females.
# P. falciparum strain 3D7 = assay: Antimalarial activity: inhibition of blood-stage malaria parasite growth (SybrGreen I); format: cell-based; conditions: Plasmodium falciparum, 60 h incubation
# Method: Asexual stage of P. falciparum strain 3D7 (received as a gift from collaborator team) was maintained under standard conditions at 2% hematocrit with 0+ human erythrocytes (Blood obtained from Poona Serological Trust Blood Bank, Pune) in RPMI1640 containing 15 mM HEPES, 50 mg/L Gentamicin sulfate 10 mg/L hypoxanthine, 2 g/L sodium bicarbonate (Sigma-Aldrich) and 2.5 g/L AlbuMAX II (Thermo Fisher Scientific). Parasites were synchronized using 5% sorbitol (Sigma-Aldrich) for the enrichment of ring-stage parasite. In brief, P. falciparum cultures were collected by centrifugation at 1,000 g for 5 min at 25° C. and the parasitized RBC pellet was resuspended 5% sorbitol, followed by incubation at 37° C. for 10 min. Following incubation, the cells were pelleted and washed with complete medium, prior to placing the parasites back into culture flasks at 2% hematocrit and 2% parasitemia.
# Assays were typically set up in 96-well plate format and 2% of parasitized culture was used per well. The stock solution of the nigericin was prepared in DMSO, and so 0.5% DMSO (equivalent to the DMSO present in the nigericin-treated samples) treatment was used as a control. […]
# [5] = system: Staphylococcus aureus (ATCC 29737); assay: Antibacterial activity (MIC) against Staphylococcus aureus; format: cell-based
# Description: as §2
# [6] = system: Micrococcus luteus (ATCC 11880); assay: Antibacterial activity (MIC) against Micrococcus luteus; format: cell-based; conditions: ATCC11880, range stated over five gram-positive microorganisms, read-out: minimum inhibitory concentration (MIC)
# Description: as §2
# in vivo = assay: in vivo; set-up: species or system Sprague Dawley rats; conditions: male, Sprague Dawley, rat
# Method: Oral solution bioavailability was 2%.
# Plasma Pharmacokinetics study of Nigericin was carried out using three different routes of administration i.e. Intravenous (IV), Oral (O) and Intraperitoneal (IP). Based on above study, the intraperitoneal route of administration was selected to study the toxicokinetic profiling of Nigericin.
# [7] = female, rat, in vivo, 0.5 mg/kg/day
# [8] = female, rat, in vivo, 1.5 mg/kg/day
# [9] = male, rat, in vivo, 0.5 mg/kg/day, Cmax
# [10] = male, rat, in vivo, 0.5 mg/kg/day, Tmax
# [11] = male, rat, in vivo, 1.5 mg/kg/day
# [12] = male, rat, in vivo, 1.5 mg/kg/day, Cmax
# [13] = male, rat, in vivo, 1.5 mg/kg/day, Tmax
# [14] = male, rat, in vivo, 5 mg/kg/day
# [15] = male, rat, in vivo, 5 mg/kg/day, Cmax
# [16] = male, rat, in vivo, 5 mg/kg/day, Tmax
# [17] = 14-day repeated IP, conclusion of study
smiles,measurement,setting,value
CO[C@@H]1C[C@@H](C[C@H]2CC[C@H](C)[C@H]([C@@H](C)C(=O)O)O2)O[C@]2(O[C@](C)([C@H]3CC[C@@](C)([C@@H]4O[C@@H]([C@H]5O[C@@](O)(CO)[C@H](C)C[C@@H]5C)C[C@@H]4C)O3)C[C@H]2C)[C@@H]1C [nigericin],male/female exposure ratio (AUClast),"[1]; Day 1, 0.5 mg/kg/day",2.11
same,male/female exposure ratio (AUClast),"[1]; Day 1, 1.5 mg/kg/day",0.68
same,male/female exposure ratio (AUClast),"[1]; Day 1, 5 mg/kg/day",1.15
same,male/female exposure ratio (AUClast),"[1]; Day 14, 0.5 mg/kg/day",0.90
same,male/female exposure ratio (AUClast),"[1]; Day 14, 1.5 mg/kg/day",1.21
same,Tmax,"[1]; rat, in vivo, Mean Tmax across the doses",4.8 to 25.2 min
same,accumulation following repeated intraperitoneal dose administration,"[1]; across the doses, both genders",No trend of accumulation
same,quantifiable in plasma for up to,"[1]; day-1, all three doses (0.5, 1.5, 5 mg/kg/day IP), both genders",up to 24 h
same,accumulation ratio (AUClast) on Day 14,"[1]; female, 0.5 mg/kg/day",1.04
same,accumulation ratio (AUClast) on Day 14,"[1]; female, 1.5 mg/kg/day",0.51
same,Dose exposure ratio,"[1]; female, Day 1, dose increase 0.5 to 1.5 mg/kg/day",5.91
same,Dose exposure ratio,"[1]; female, Day 1, dose increase 1.5 to 5 mg/kg/day",2.33
same,Dose exposure ratio,"[1]; female, Day 14, dose increase 0.5 to 1.5 mg/kg/day",2.89
same,AUClast,[1]; [7],549.87 ng·h/mL
same,Cmax,[1]; [7],222.17 ng/mL
same,AUC(0-t),[1]; [7],527 ng·h/mL
same,Cmax,"[1]; female, rat, in vivo, 0.5 mg/kg/day, Cmax",188 ng/mL
same,Tmax,"[1]; female, rat, in vivo, 0.5 mg/kg/day, Tmax",19.8 min
same,AUClast,[1]; [8],1589.38 ng·h/mL
same,Cmax,[1]; [8],710.63 ng/mL
same,AUC(0-t),[1]; [8],3120 ng·h/mL
same,Cmax,"[1]; female, rat, in vivo, 1.5 mg/kg/day, Cmax",840 ng/mL
same,AUC(0-t),"[1]; female, rat, in vivo, 5 mg/kg/day",7260 ng·h/mL
same,Cmax,"[1]; female, rat, in vivo, 5 mg/kg/day, Cmax",2440 ng/mL
same,Tmax,"[1]; female, rat, in vivo, 5 mg/kg/day, Tmax",19.8 min
same,accumulation ratio (AUClast) on Day 14,"[1]; male, 0.5 mg/kg/day",0.44
same,accumulation ratio (AUClast) on Day 14,"[1]; male, 1.5 mg/kg/day",0.90
same,accumulation ratio (AUClast) on Day 14,"[1]; male, 5 mg/kg/day",0.98
same,Dose exposure ratio,"[1]; male, Day 1, dose increase 0.5 to 1.5 mg/kg/day",1.91
same,Dose exposure ratio,"[1]; male, Day 1, dose increase 1.5 to 5 mg/kg/day",3.93
same,Dose exposure ratio,"[1]; male, Day 14, dose increase 0.5 to 1.5 mg/kg/day",3.89
same,Dose exposure ratio,"[1]; male, Day 14, dose increase 1.5 to 5 mg/kg/day",4.26
same,Cmax,[1]; [9],403 ng/mL
same,Cmax at 14 day,[1]; [9],200 ng/mL
same,Tmax,[1]; [10],15 min
same,Tmax at 14 day,[1]; [10],16.8 min
same,AUClast,[1]; [11],2126.23 ng·h/mL
same,AUC(0-t),[1]; [11],1920 ng·h/mL
same,Cmax,[1]; [12],830 ng/mL
same,Cmax at 14 day,[1]; [12],815 ng/mL
same,Tmax,[1]; [13],19.8 min
same,Tmax at 14 day,[1]; [13],4.8 min
same,AUClast,[1]; [14],8347.82 ng·h/mL
same,AUC(0-t),[1]; [14],8190 ng·h/mL
same,Cmax,[1]; [15],2390 ng/mL
same,Cmax at 14 day,[1]; [15],3060 ng/mL
same,Tmax,[1]; [16],19.8 min
same,Tmax at 14 day,[1]; [16],19.8 min
same,plasma exposure (AUClast) with increase in dose,"[1]; rat, in vivo",dose-related increase
same,MIC,[2],0.25 to 0.5 µM
same,toxicity against murine splenocytes compared to commercially available nigericin (Sigma),murine splenocytes,no statistically significant difference
same,MIC,[3],0.25 to 0.5 µM
same,MIC,[4],0.25 to 0.5 µM
same,abnormal clinical signs,"Sprague-Dawley rats; 0.5 mg/kg/day IP, 14 consecutive days",did not result in abnormal clinical signs
same,dose that can be lethal,Sprague-Dawley rats; [17],above 5 mg/kg
same,dose that will not cause any clinical adversity,Sprague-Dawley rats; [17],< 1.5 mg/kg
same,mortality,Sprague-Dawley rats,Mortality was observed
same,mortality,Sprague-Dawley rats; listed as Nigericin,lethal
same,mortalities,"Sprague-Dawley rats; up to 1.5 mg/kg/day IP, 14 consecutive days",did not result in
same,"effect on ophthalmoscopy, coagulation, urinalysis and reticulocytes count",Sprague-Dawley rats; up to highest surviving dose 1.5 mg/kg/day IP,no test item related effect
same,IC50,P. falciparum strain 3D7; read-out: IC50 against P. falciparum,~0.986 nM
same,EC50,"P. falciparum strain 3D7; blood-stage parasite growth, n=3",2.4 nM
same,MIC,"[5]; ATCC29737, against Staphylococcus aureus, read-out: MIC",0.21 µg/mL
same,MIC,"[5]; ATCC29737, against Staphylococcus aureus, read-out: MIC Conc.",0.288 µM
same,MIC,"[5]; Staphylococcus aureus, ATCC29737, range stated over five gram-positive microorganisms, read-out: minimum inhibitory concentration (MIC)",0.25 to 0.5 µM
same,MIC,"[5]; against Staphylococcus aureus, read-out: MIC",0.21 µg/mL
same,MIC,[6],0.25 to 0.5 µM
same,Tmax,"in vivo; ip, 2 mg/kg",15 min
same,plasma concentrations quantifiable up to,"in vivo; ip, 2 mg/kg",up to 24 hr
same,Vss relative to normal volume of total body water (0.7 L/kg),"in vivo; iv, 2 mg/kg",2.3 fold
same,clearance,"in vivo; iv, 2 mg/kg",15.1 mL/min/kg
same,half-life,"in vivo; iv, 2 mg/kg",212 min
same,Tmax,"in vivo; po, 10 mg/kg",37.8 min
same,bioavailability,"in vivo; po, 10 mg/kg",2%
same,plasma concentrations quantifiable up to,"in vivo; po, 10 mg/kg",up to 24 hr

# — patent publication US12018305B2, “Process for production of nigericin from Streptomyces sp. MCC-0151” (Council of Scientific & Industrial Research, priority 2018, dated 2024)
